Measured values as given in patent publication US9707244B2, “Compositions and methods for treating conditions that affect epidermis” (Gencia Corporation, priority 2013, dated 2017).
“Also recorded” adds a separate entry of the source.

Experiments:
[1] = tested on: C57BL/6J mice; assay: Fore-limb grip strength test; assay type: in vivo; details: 10, 20, 30 mg/kg p.o. once daily for 30 days
Protocol: Group Setting: C57BL/6J mice were randomly assigned into five groups with different treatment started with balanced full-paw and fore-paw grip strength. Seventy five female mice were dosed at 4 PM for 30 consecutive days (qd). • 1. Vehicle (p.o. via oral gavage once daily for 30 days, n=15) • 2. Creatine (300 mg/kg, p.o. via oral gavage once daily for 30 days, n=15) • 3. Mitocreatine (10 mg/kg, p.o. via oral gavage once daily for 30 days, n=15) • 4. Mitocreatine (20 mg/kg, p.o. via oral gavage once daily for 30 days, n=15) • 5. Mitocreatine (30 mg/kg, p.o. via oral gavage once daily for 30 days, n=15). One hundred female mice were tested before dosing for a baseline of grip strength. 75 mice were selected and randomly assigned into 5 groups for different treatment. Seventy five mice (group 1-5) were test on day 31. Mice were allowed to acclimate to the testing room for at least 30 min before tested. All animals were marked on the tail with a permanent mark pen. Mouse was lowered towards the grid on the push-pull gauge until it grabbed with both front paws Animal was gently pulled backwards by the tail with an angle less than 15° until it released its grip of both fore-paws. The maximal fore-limb grip force was recorded on the strain gauge. Test was repeated 3 times with 15 min interval each time and the average was used. […]

[2] = tested on: Human hepatocellular liver carcinoma cell line HepG2; assay: Survival of HepG2 cells treated with chemotherapeutic agents (DAPI fluorescence); assay type: cell-based; details: Cetuximab, Gemcitabine or Temozolomide; 48 hours
Protocol: Fibroblasts were incubated with increasing amounts of Mitocreatine and certain anti-neoplastic agents, such as Cetuximab, Gemcitabine and Temozolomide. After incubation, cells were washed and the number of adherent (i.e. surviving) cells was assessed by DAPI fluorescence, which was measured utilizing a plate reader (PHERA Star FS from BMG Labtech). For these experiments two kinds of cells were used. Either the Human hepatocellular liver carcinoma cell line HepG2, or the BJ human fibroblast cells, which are established from normal human foreskin. […] Mitocreatine and the antineoplastic agent were added simultaneously.

[3] = tested on: AG11073 fibroblasts from a person; assay: 3D collagen cell culture system, aged skin fibroblasts; assay type: cell-based, human; details: five days post-treatment
Protocol: (§1) The effects of Mitocreatine on skin fibroblasts cultured in a 3D matrix to better simulate in vivo milieu were examined. The cells were visualized by phase contrast light microscopy and their biological response to different concentrations of Mitocreatine evaluated. The 3D Collagen Cell Culture System from Millipore (Catalogue number ECM 675) was utilized.
(§2) All liquids were prepared according to manufacturer's instructions, and kept on ice. Tissue culture plates were coated with collagen by pipetting 500 μL of chilled Collagen Gel Solution into each well of a 24 well tissue culture plate. The plate was immediately transferred to a 37° C. incubator for 60 min to initiate polymerization of the collagen.
(§3) After the formation of the collagen gel, AG11073 and AG16409 cells were harvested and re-suspended at 4×10^5/mL and 1×10^6 cells were seeded onto the collagen gel. The cells were obtained using the procedure as described in Example 1.
(§4) After overnight incubation at 37° C. with 5% CO2 the media was replaced with fresh media containing various doses of Mitocreatine or the vehicle. Cells were visualized daily using phase contrast microscopy.
Fibroblasts from a person were cultured on a collagen matrix. Two days after seeding, cells were treated with a Mitocreatine at increasing amounts (0, 5, 15 and 25 μL). Five days post-treatment, collagen shrinkage was assayed by means of translucency. […]

[4] = tested on: AG11073 untransformed human skin fibroblasts from a person; assay: Cellular senescence assay (SA-β-Gal fluorometric), aged fibroblasts; assay type: cell-based; details: 5 nM to 200 nM, p<0.01 for 5-100 nM, p<0.05 for 200 nM
Source text: Senescent cells show common biochemical markers such as expression of an acidic senescence-associated β-galactosidase (SA-β-Gal) activity. While senescence has been characterized primarily in cultured cells, there is also evidence that it occurs in vivo. Cells expressing markers of senescence such as SA-β-Gal have been identified in normal tissues. To determine whether modified Mitocreatine analogues may influence the scenesence in aged fibroblasts, a 96-well Cellular Senescence Assay (SA-β-Gal Fluorometric Format) Cat # CBA-231 Cell Biolabs, Inc. was employed and buffers referenced were supplied by the manufacturer and in some cases freshly prepared prior to usage according to the manufacturer's instructions.
The cells utilized were Human Skin Fibroblast acquired from Coriell Cell Repository. The cell line AG11073 is untransformed human skin fibroblasts from a person. The primary culture was initiated from explants of a 2 mm-punch biopsy. The cell line AG16409 was untransformed human skin fibroblasts from a person.
Cells were grown in a 96 well plate. […]
50 μL, of the reaction mixture was removed to a 96-well plate suitable for fluorescence measurement. The reaction was stopped by adding 200 μL of Stop solution and fluorescence was measured with a fluorescence plate reader (PHERA Star FS from BMG Labtech) at 360 nm (Excitation)/465 nm (Emission).

[5] = tested on: AG16409 fibroblasts from a child; assay: 3D collagen cell culture system, young skin fibroblasts; assay type: cell-based, human
Protocol: as §1, §2, §3, §4
Fibroblasts from a person were cultured on a collagen matrix. Two days after seeding, cells were treated with a Mitocreatine at increasing amounts (0, 5, 15 and 25 μL). Five days post-treatment, collagen shrinkage was assayed by means of translucency.

Compound: CN(CC(=O)NCCC[P+](c1ccccc1)(c1ccccc1)c1ccccc1)C(=N)N.Cl.[Cl-] [Mitocreatine, N^2-[ammonio(imino)methyl]-N^2-methyl-N-[3-(triphenylphosphonio)propyl] glycinamide dichloride]
- strength (fore limb grip force) [1]: Increases Endurance and Strength
- survival of HepG2 cells [2]: not improve the survival
- collagen matrix translucency [3]: dose-dependent increase
- β-galactosidase expression/activity (senescence marker) [4]: statistically significant decrease; also recorded: retards senescence
- collagen translucency [5]: No change
